The structures appear in SMILES notation.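 Following 48 hours of exposure in 96-well plates, responses at five concentrations were used to interpolate endpoints linearly. TGI: concentration producing complete growth inhibition.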 Some results are limits rather than exact numbers.

Consider eleven compounds from PubChem BioAssay (NCI).

Among the test systems are 786-0 renal; MCF7 breast; SN12C renal; NCI/ADR-RES ovarian; SK-OV-3 ovarian; SF-268 CNS; DU-145 prostate; SF-295 CNS; COLO 205 colon; UACC-62 melanoma; HCT-15 colon; KM12 colon; IGROV1 ovarian.
Common to all, as to experiment: NCI-60 cell line screen, 48 h

Consider `Cc1nn(-c2ccccc2)c2nc3c(c(C)nn3-c3ccccc3)c(-c3ccccc3Br)c12`, for which the TGI in the test with 786-0 renal, in the test with MCF7 breast, in the test with SN12C renal, with NCI/ADR-RES ovarian, with SK-OV-3 ovarian and in the test on SF-268 CNS was greater than 100 µM throughout. The TGI in the test with DU-145 prostate, in the test on SF-295 CNS, with COLO 205 colon, in the test on UACC-62 melanoma, in the test with HCT-15 colon and with KM12 colon was greater than 100 µM throughout. The compound also came in with a TGI with IGROV1 ovarian greater than 100 µM.
Consider `O=C(/C=C/c1c(O)c2ccccc2[nH]c1=O)CC(=O)C(=O)Nc1cccc(O)c1`, for which the TGI in the test with 786-0 renal, in the test with MCF7 breast, in the test on SN12C renal, in the test on NCI/ADR-RES ovarian, in the test on SK-OV-3 ovarian and in the test with SF-268 CNS was greater than 100 µM each time. The TGI in the test with DU-145 prostate, with SF-295 CNS, in the test with COLO 205 colon, in the test on UACC-62 melanoma, with HCT-15 colon and in the test with KM12 colon was greater than 100 µM each time. Also, the TGI with IGROV1 ovarian is greater than 100 µM.
In the case of `CC(C)[Si](OCC/C=C/C1CCC(=O)C1C(O)C1CCCCC1)(C(C)C)C(C)C` (stereo not drawn), the TGI came to 29.3 µM in the test with 786-0 renal; 34.2 µM in the test on MCF7 breast; 34.4 µM with SN12C renal; 27.6 µM with NCI/ADR-RES ovarian; 30.3 µM in the test on SK-OV-3 ovarian; 24.7 µM in the test on SF-268 CNS. In addition, the TGI was determined as 32 µM in the test with DU-145 prostate; 31.8 µM in the test on SF-295 CNS; 35.5 µM in the test on COLO 205 colon; 29.7 µM with UACC-62 melanoma; 30.6 µM in the test on HCT-15 colon; 30 µM with KM12 colon. The TGI in the test on IGROV1 ovarian turned out to be 28.5 µM.
Take `Cc1ccc2nc(CN3CCCCC3)cc(=O)n2c1`: the TGI in the test with 786-0 renal, in the test on MCF7 breast, in the test on SN12C renal, in the test with NCI/ADR-RES ovarian, with SK-OV-3 ovarian and in the test with SF-268 CNS was greater than 100 µM in each case. The TGI with DU-145 prostate, in the test with SF-295 CNS, in the test with COLO 205 colon, in the test with UACC-62 melanoma, with HCT-15 colon and in the test with KM12 colon was greater than 100 µM throughout. For the same compound, in the test on IGROV1 ovarian, the TGI is greater than 100 µM.
On to `O=c1oc2ccccc2c(O)c1C(c1ccc2ccccc2c1)c1c(O)c2ccccc2oc1=O`, for which the TGI was 74.7 µM in the test on 786-0 renal; greater than 100 µM with MCF7 breast; 45.3 µM with SN12C renal; 38.5 µM in the test on NCI/ADR-RES ovarian; greater than 100 µM in the test with SK-OV-3 ovarian; 50.8 µM with SF-268 CNS. Besides, the TGI was greater than 100 µM in the test with DU-145 prostate; greater than 100 µM in the test with SF-295 CNS; 78.2 µM in the test on COLO 205 colon; greater than 100 µM in the test with UACC-62 melanoma; 47.5 µM in the test on HCT-15 colon; 40 µM in the test with KM12 colon. The TGI with IGROV1 ovarian was found to be 90.3 µM.
For `Cc1nc2c(n1CCCl)C(=O)c1ccccc1C2=O`, the TGI in the test with 786-0 renal was greater than 100 µM; in the test on MCF7 breast, 41.6 µM; in the test on SN12C renal it was greater than 100 µM; in the test on NCI/ADR-RES ovarian, 63.6 µM; with SK-OV-3 ovarian, 79.6 µM; with SF-268 CNS, greater than 100 µM. Moreover, the TGI in the test on DU-145 prostate is greater than 100 µM; with SF-295 CNS, 62.6 µM; in the test on COLO 205 colon it was 30.2 µM; in the test on UACC-62 melanoma it was 44.2 µM; in the test with HCT-15 colon, 40.9 µM; with KM12 colon, greater than 100 µM. This compound came in with a TGI in the test with IGROV1 ovarian of 41.6 µM.
With `OC1OC(c2ccc[nH]2)C(F)(F)C(F)(F)C1(F)F` (stereo not drawn), the TGI in the test with 786-0 renal, in the test with MCF7 breast, in the test with SN12C renal, in the test with NCI/ADR-RES ovarian, in the test on SK-OV-3 ovarian and with SF-268 CNS was greater than 100 µM throughout. Moreover, the TGI in the test with DU-145 prostate, with SF-295 CNS, with COLO 205 colon, in the test on UACC-62 melanoma, in the test on HCT-15 colon and in the test on KM12 colon was greater than 100 µM in each case. Further, the TGI in the test on IGROV1 ovarian was greater than 100 µM.
With `O=C(O)c1ccccc1C(=O)OCC1CCCN2CCCCC12` (stereo not drawn), the TGI in the test with 786-0 renal, in the test with MCF7 breast, in the test with SN12C renal, in the test with NCI/ADR-RES ovarian, in the test on SK-OV-3 ovarian and in the test on SF-268 CNS was greater than 100 µM throughout. Further, the TGI with DU-145 prostate, with SF-295 CNS, in the test on COLO 205 colon, with UACC-62 melanoma, in the test on HCT-15 colon and with KM12 colon was greater than 100 µM throughout. The compound further returned a TGI in the test on IGROV1 ovarian greater than 100 µM.
Turning to `Cn1c(=S)[nH]c2c(Cl)cc(Cl)cc2c1=O`, the TGI in the test on 786-0 renal, in the test on MCF7 breast, with SN12C renal, in the test with NCI/ADR-RES ovarian, in the test with SK-OV-3 ovarian and in the test with SF-268 CNS was greater than 100 µM throughout. The TGI in the test with DU-145 prostate, with SF-295 CNS, in the test with COLO 205 colon, with UACC-62 melanoma, in the test on HCT-15 colon and with KM12 colon was greater than 100 µM each time. Besides, the TGI in the test with IGROV1 ovarian was greater than 100 µM.
In the case of `Clc1cccc(Cl)c1C1SCc2nc3cc4ccccc4cc3n21` (stereo not drawn), the TGI in the test with 786-0 renal, in the test on MCF7 breast, with SN12C renal, with NCI/ADR-RES ovarian, in the test with SK-OV-3 ovarian and in the test on SF-268 CNS was greater than 100 µM each time. The TGI with DU-145 prostate, with SF-295 CNS, with COLO 205 colon, with UACC-62 melanoma, in the test on HCT-15 colon and with KM12 colon was greater than 100 µM in each case. The same compound gave a TGI in the test with IGROV1 ovarian greater than 100 µM.
In the case of `O=C(n1[nH]c(=O)n(-c2ccc([N+](=O)[O-])cc2)c1=O)C(Cl)(Cl)Cl`, the TGI in the test on 786-0 renal, with MCF7 breast, in the test on SN12C renal, in the test with NCI/ADR-RES ovarian, with SK-OV-3 ovarian and with SF-268 CNS was greater than 75 µM throughout. In addition, the TGI in the test with DU-145 prostate, in the test on SF-295 CNS, with COLO 205 colon, in the test on UACC-62 melanoma, in the test with HCT-15 colon and in the test with KM12 colon was greater than 75 µM each time. For the same compound, the TGI in the test on IGROV1 ovarian was greater than 75 µM.
